This is an account of results in patent US20180353445A1, “METHODS AND COMPOSITIONS RELATING TO PROTEASOME INHIBITOR RESISTANCE” (Whitehead Institute for Biomedical Research, priority 2017, published 2018).

For test [1], the system named is IMR32 (reduced PSMD5) and Kelly neuroblastoma cells. Put plainly: Viability of IMR32 versus Kelly neuroblastoma cells (CellTiter-Glo). Type of test: cell-based, human. The following applies: other experiments, e.g., 0.1 uM. In general terms: In ATP-based viability assays light output follows the ATP content of the culture.
For test [2], the target named is β5-subunit of the proteasome (Homo sapiens, UniProt P28074). The following applies: cited from earlier work.
The target in the next test is T1, FDX2 (Homo sapiens, UniProt Q6P4F2).
T1 construct: made in house
T1 sequence (Q6P4F2 53-183): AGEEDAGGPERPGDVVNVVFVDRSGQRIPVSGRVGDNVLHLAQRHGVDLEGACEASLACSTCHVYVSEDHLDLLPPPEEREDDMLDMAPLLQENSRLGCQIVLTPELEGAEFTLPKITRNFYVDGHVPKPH
Put plainly: In vitro Fe-S cluster assembly assay with reduced FDX2. The following applies: reduced FDX2 substituted for reduced FDX1. Type of test: biochemical. From the text: Fe—S clusters are generated from sulfur extracted from cysteine by the iron sulfur-cluster (ISC) core complex (NFS1-ISD11-Acp-ISCU)2 and iron. A reductant (FDX1 or FDX2) is required for Fc-S cluster biosynthesis (Lill and Muhlenhoff, 2006; Py and Barras, 2010) (FIG. 53A). To investigate the effect of elesclomol on mitochondrial Fe—S cluster biosynthesis, we utilized in vitro Fe—S cluster assembly assays. […] As further confirmation, we examined the effect of elesclomol on electron transfer from reduced FDX1 to the ISC core complex upon the addition of cysteine.
Protein Expression and Purification—Unlabeled samples of ISCU, unlabeled (NFS1-ISD11-Acp)2 (abbreviated as SDA), unlabeled and [U-^15N]-FDX1 (truncated first 61 amino acids) and unlabeled FDX2 were produced and purified as described previously (Cai et al., 2013; Cai et al., 2017a; Cai et al., 20176). FDX1 and FDX2 were reduced by adding a 10-fold excess of sodium dithionite to oxidized FDX1 or FDX2 in an anaerobic chamber (Coy Laboratory). The reduction of FDX1 or FDX2 was monitored by the color change from dark brown to light pink and by recording IN/vis spectra before and after reduction. […]
In vitro Fe—S cluster assembly assay—The in vitro Fe—S cluster assembly assays were carried out as follows. […] The growth of absorbance at 456 nm was used to monitor the assembly of [2Fe-2S] clusters.

The test system of the next test is MM.1S tumors. Kind of test: MM.1S luciferase multiple myeloma model in SCID mice. The format is in vivo, mouse. The following applies: elesclomol 28mg/kg with bortezomib 0.25mg/kg. Here is the method:
FIGS. 54A-54D: Inhibiting the glycolysis-OXPHOS shift with elesclomol is beneficial to proteasome inhibitor treatment in a mouse model of multiple myeloma. (FIG. 54A) provides a schematic of the experimental outline. Mice were injected with MM .'S luciferase expressing cells. Upon tumor formation as judged by BLI signal intensity, treatment with elesclomol (28mg/kg), bortezomib (0.25mg/kg) or the combination (Combo) was initiated (day 0). At day 15, elesclomol was added to the treatment of one of the aroups that had received only bortezomib from day 0 to day 15 (combo-delayed group). […] N=5 per aroup. *** p<0.001.
FIGS. 60A-60B: Inhibiting the glycolysis-OXPHOS shift, with elesclomol is beneficial to proteasome inhibitor treatment in a mouse model of multiple myeloma.

The target of another test is T2, cysteine desulfurase (Homo sapiens, UniProt Q9Y697).
T2 construct: made in house
T2 sequence (Q9Y697 56-457): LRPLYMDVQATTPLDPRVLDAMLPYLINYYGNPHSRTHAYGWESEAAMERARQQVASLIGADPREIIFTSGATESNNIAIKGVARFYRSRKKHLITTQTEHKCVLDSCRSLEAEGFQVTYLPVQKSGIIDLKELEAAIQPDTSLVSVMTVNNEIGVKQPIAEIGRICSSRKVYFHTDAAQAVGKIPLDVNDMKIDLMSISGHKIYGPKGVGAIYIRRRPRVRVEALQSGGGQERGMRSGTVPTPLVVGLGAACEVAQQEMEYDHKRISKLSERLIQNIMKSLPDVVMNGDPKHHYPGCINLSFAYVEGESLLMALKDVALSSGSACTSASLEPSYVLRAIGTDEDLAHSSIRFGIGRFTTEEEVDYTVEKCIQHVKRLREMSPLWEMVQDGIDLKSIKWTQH
T2 sequence (Q9HD34 whole entry, further chain): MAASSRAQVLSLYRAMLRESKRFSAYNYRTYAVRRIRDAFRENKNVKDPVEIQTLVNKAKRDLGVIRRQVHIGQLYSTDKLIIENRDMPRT
T2 sequence (P0A6A8 2-78, further chain): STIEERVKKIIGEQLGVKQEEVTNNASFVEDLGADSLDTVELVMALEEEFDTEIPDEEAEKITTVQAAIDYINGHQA
Put plainly: Cysteine desulfurase activity assay. Type of test: biochemical. Here is the method:
The in vitro Fe—S cluster assembly was carried out with reduced FDX1 as the reducing agent and detected by following the increase of absorbance at 456 tun following the addition of either of 5× (green) or 10× (yellow, both relative to FDX1) compound-1. […] Fe—S formation was monitored by following the increase of absorbance at 456 nm. […] Cysteine desulfurase activity assay carried out with the indicated concentrations of elesclomol.

In another test the test system is T47D cells. Put plainly: Elesclomol combined with proteasome inhibitors, control and PSMD2 KD (Lo19S) T47D cells, CellTiter-Glo. Type of test: cell-based, human. Here is the method:
FIGS. 38A-38D: Elesclomol synergizes with proteasome inhibitors. Validation of drug screen results. Control and PSMD2 knockdown cells were exposed to the indicated concentrations of either ixazomib (FIG. 38A) or elesclomol (FIG. 38B). Control (FIG. 38C) or PSMD2 KD (FIG. 38D) cells were treated with increasing concentrations of ixa.zomib in the presence or absence of the indicated concentrations of elesclomol. Cell viability was examined 72 hours after drug application using CellTiter-Glo.
(FIG. 39B) Cells with the 19S PSMD2 subunit KD were treated with indicated concentration of ixazomib or with indicated concentrations of ixazomib with 4:1 ratio of ixazomib to elesclomol (i,e, the concentration of elesclomol is 4× smaller than the indicated concentration of ixazomib). (FIG. 39C) The experiment described in (FIGS. 39A-39B).
FIGS. 50A-50D: Elesclomol targets the Lo19S state to block proteasome inhibitor resistance. […] The relative viability of the Lo19S versus control cells was calculated for replica experiments and the log2 of the ratio is plotted. […] The relative viability of the respiring cells (Hi-OXPHOS) (gal) versus the control cells (glu) was calculated for replica experiments and the log2 of the ratio is plotted. Specific compounds are annotated. […] Plotted are the mean±−SD of at least three replicas and the calculated EC50s. […]

In test [3] the test system is MCF7, HEK293 and T47D cells. Kind of test: Viability of cells grown in glucose (glycolytic) vs galactose (Hi-OXPHOS). The format is cell-based, human. As for the experimental part: FIGS. 40A-40D: Cancer cell metabolism alters sensitivity to elesclomol.
FIGS. 41A-41B: Cancer cell metabolism alters sensitivity to elesclomol.
FIGS. 51A-51D: Elesclomol preferentially targets cells in the Hi-OXPHOS state. […] The relative cell growth (color coded) was analyzed 72 hours post compound addition. Plotted are the mean SD of at least three replicas and the calculated EC50s (FIGS. 51B-51C). […] Reactive groups are indicated with a colored circle.
FIGS. 57A-57C: Elesclomol preferentially targets cells in the Hi-OXPHOS state. […] Analogs named compound 1-6. […] Plotted are the mean SD of at least three replicas and the calculated EC50s (FIG. 57A and FIG. 57C).

Consider `CC1(C)CCC(c2ccc(Cl)cc2)=C(CN2CCN(c3ccc(C(=O)NS(=O)(=O)c4ccc(N[C@H](CCN5CCOCC5)CSc5ccccc5)c(S(=O)(=O)C(F)(F)F)c4)cc3)CC2)C1` [ABT-263, navitoclax], for which the “toxicity at lower concentrations than 1 uM” value in test [1] is reported as “a similar level of toxicity was observed”.
Turning to `CC(C)C[C@H](NC(=O)[C@H](Cc1ccccc1)NC(=O)c1cnccn1)B(O)O` [bortezomib], the “potency of inhibition of the β5-subunit” value in test [2] was “low nanomolar potency”.
Regarding `CN(NC(=O)CC(=O)NN(C)C(=S)c1ccccc1)C(=S)c1ccccc1` [elesclomol], the “inhibition of in vitro Fe-S cluster assembly” value against FDX2 is recorded as “almost complete loss of inhibition”. Besides, the “effect on proteasome inhibitor treatment in a mouse model of multiple myeloma” value in the test on MM.1S tumors is on record as “beneficial”. Besides, the “activity of cysteine desulfurase” value on cysteine desulfurase is “does not inhibit”. Besides, the “combination effect with proteasome inhibitors” value in the test with T47D cells is listed as “synergizes”. Also, in test [3], the “activity against cells in the HI-OXPHOS state” value is recorded as “preferential activity” and the “toxicity when grown in the presence of Galactose” value was “toxicity is enhanced”. The “sensitivity of cells utilizing mitochondria metabolism vs glycolytic cells” value in test [3] (MCF7 and HEK293 cells) was “much more sensitive”.
